{
  "source": "patent US20100173873A1",
  "about": "“TREATMENT OF METASTASIZED TUMORS” (Novartis Vaccines and Diagnostics, Inc., priority 2005, published 2010)",
  "key": {"MV4;11 tumors": {"system": "MV4;11 tumors", "test": "Subcutaneous MV4;11 xenograft model", "type": "in vivo, SCID-NOD mice"}, "[1]": {"system": "other kinases in the PI3K/Akt and MAPK(K) pathways", "test": "Selectivity test against other kinases", "type": "biochemical", "conditions": "negligible activity"}, "PC-3M-luc tumor cells": {"system": "PC-3M-luc tumor cells", "test": "PC-3M-luc bone metastatic prostate model", "type": "in vivo, nude mice", "description": "Cell lines. Metastatic human prostate cell line PC-3M expressing null p53, del PTEN, VEGFR, FGFR and stably transfected with a construct of luciferase were obtained under a licensing agreement with Xenogen.\nIn vivo efficacy studies. […]. Animals received sterile rodent chow and water ad libitum and were housed in sterile filter-top cages with 12 hour light/dark cycles. All experiments were conducted under the guidelines of the Association for Assessment and Accreditation of Laboratory Animal Care International. PC-3M luc bone metastatic model. Human prostate cancer cell line PC-3M-luc cells (1.5×10^6 cells) stably transfected with a construct of luciferase were injected via intracardiac injections. Bioluminescent imaging (Xenogen's IVIS® imaging system) was used to non-invasively monitor the in vivo growth and metastasis of PC-3M-luc tumors after cell inoculation. Nearly all PC-3M-luc tumor cell-injected animals developed prostate lesions, which were mainly localized in the femur, and mandibles. […]. Mice were monitored daily and were euthanized when moribund.\nImmunohistochemistry. Bone (femurs, mandible) samples were decalcified (Protocol™, Fisher Diagnostics, Middletown, Va.). Paraffin blocks were sectioned to […] thickness and placed on positively charged glass slides. Tissues were stained with hematoxylin and eosin for general tissue morphology and identification of PC-3M cells in bone.\nNude mice were inoculated with PC-3M-Luc cells intracardiacally with 1.5×10^6 cells. […]. The PC-3M-luc cell lines were purchased from Xenogen and the mice were imaged using Xenogen's IVIS® imaging system."}, "4T1 murine breast tumor": {"system": "4T1 murine breast tumor", "test": "4T1 murine breast tumor model (primary tumor, liver and lung metastases)", "type": "in vivo, BALB/c mice", "conditions": "for Liver # of Metastases Mean ± SD / Lung # of Metastases Mean ± SD: after 17 days of dosing"}, "[2]": {"system": "VEGF production in MV4;11 cells", "test": "VEGF ELISA on MV4;11 culture supernatants", "type": "cell-based", "conditions": "Homo sapiens; MV4;11, 48 hours; read-out: EC50 inhibition of VEGF production"}, "P-glycoprotein": {"molecular_target": "P-glycoprotein (Homo sapiens, UniProt P08183)", "sequence (P08183 whole entry)": "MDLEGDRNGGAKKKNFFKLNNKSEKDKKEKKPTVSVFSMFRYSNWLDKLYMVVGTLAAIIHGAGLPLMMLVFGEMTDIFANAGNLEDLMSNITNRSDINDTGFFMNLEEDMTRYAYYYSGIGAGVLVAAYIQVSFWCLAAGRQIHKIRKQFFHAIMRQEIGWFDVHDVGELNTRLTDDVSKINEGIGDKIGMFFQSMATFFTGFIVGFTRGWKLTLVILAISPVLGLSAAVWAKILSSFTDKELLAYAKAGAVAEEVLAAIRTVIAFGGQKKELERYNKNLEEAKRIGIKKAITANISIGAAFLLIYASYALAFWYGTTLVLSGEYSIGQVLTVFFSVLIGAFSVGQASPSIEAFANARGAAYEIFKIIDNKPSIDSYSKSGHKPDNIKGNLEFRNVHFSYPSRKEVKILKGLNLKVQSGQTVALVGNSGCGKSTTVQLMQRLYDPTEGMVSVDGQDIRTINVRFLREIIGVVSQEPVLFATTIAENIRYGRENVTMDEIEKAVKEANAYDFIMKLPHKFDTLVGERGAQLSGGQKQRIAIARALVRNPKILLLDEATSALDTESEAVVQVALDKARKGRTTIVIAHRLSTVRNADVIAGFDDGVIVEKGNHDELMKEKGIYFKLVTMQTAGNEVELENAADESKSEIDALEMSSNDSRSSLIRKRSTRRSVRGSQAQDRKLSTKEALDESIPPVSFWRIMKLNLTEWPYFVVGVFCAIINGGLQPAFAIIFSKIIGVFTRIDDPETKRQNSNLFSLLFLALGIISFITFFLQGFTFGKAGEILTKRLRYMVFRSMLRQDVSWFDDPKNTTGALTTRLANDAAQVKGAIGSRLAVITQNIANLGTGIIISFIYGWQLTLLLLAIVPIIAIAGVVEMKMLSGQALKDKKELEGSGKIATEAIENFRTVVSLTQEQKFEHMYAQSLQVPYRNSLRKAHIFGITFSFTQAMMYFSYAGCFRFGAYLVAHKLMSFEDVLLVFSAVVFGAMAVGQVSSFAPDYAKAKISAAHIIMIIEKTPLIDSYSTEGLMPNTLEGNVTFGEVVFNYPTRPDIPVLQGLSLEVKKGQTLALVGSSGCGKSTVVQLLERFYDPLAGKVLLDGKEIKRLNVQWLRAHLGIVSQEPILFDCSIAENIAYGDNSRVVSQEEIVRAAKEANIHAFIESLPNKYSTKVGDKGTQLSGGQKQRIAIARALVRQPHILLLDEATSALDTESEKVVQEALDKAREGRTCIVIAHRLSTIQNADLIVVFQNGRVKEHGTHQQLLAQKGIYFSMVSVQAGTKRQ", "test": "P-glycoprotein substrate status", "type": "in vitro ADME"}, "PI-3K": {"molecular_target": "PI-3K", "test": "In vitro kinase assay, PI-3K", "type": "biochemical", "conditions": "RTK table"}, "[3]": {"conditions": "MV4;11 s.c., 30 mg/kg/d p.o., dose-response study"}},
  "note": "Values joined by “and” are separate entries in the source; they are usually repeats but may differ in a detail not shown here. Equal entries are not always repeated. “Also recorded” adds a separate entry of the source.",
  "data": [
    {"smiles": "CN1CCN(c2ccc3nc(-c4c(N)c5c(F)cccc5[nH]c4=O)[nH]c3c2)CC1", "note": "[Compound 1, 4-Amino-5-fluoro-3-[6-(4-methylpiperazin-1-yl)-1H-benzimidazol-2-yl]quinolin-2(1H)-one]", "values": [
      {"measurement": "Complete responses (CR)", "setting": "MV4;11 tumors; MV4;11 s.c., 30 mg/kg p.o. daily, schedule study (FIG. 4)", "value": 1},
      {"measurement": "Tumor growth inhibition (TGI)", "setting": "MV4;11 tumors; MV4;11 s.c., 30 mg/kg p.o., intermittent dosage regimens", "value": "> 94", "unit": "%"},
      {"measurement": "Complete responses (CR)", "setting": "MV4;11 tumors; [3]", "value": 1},
      {"measurement": "Tumor responses", "setting": "MV4;11 tumors; [3]", "value": "9/10"},
      {"measurement": "Doses with significant tumor growth inhibition", "setting": "MV4;11 tumors; MV4;11 s.c., p.o., FIG. 2", "value": "> 5", "unit": "mg/kg/day"},
      {"measurement": "Minor responses or stable", "setting": "MV4;11 tumors; large MV4;11 tumors 300, 500 or 1000 mm^3, 30 mg/kg/d, n=27", "value": 15, "unit": "%"},
      {"measurement": "Complete responses durable for 40 days after cessation of dosing", "setting": "MV4;11 tumors; large MV4;11 tumors, 30 mg/kg/d for 50 days", "value": "One CR"},
      {"measurement": "Regression of large MV4;11 tumors", "setting": "MV4;11 tumors; tumors staged at 300, 500 or 1000 mm^3, 30 mg/kg/d", "value": "significant regression in all MV4;11 tumors; also recorded: induces regression of large MV4;11 tumors"},
      {"measurement": "IC50", "setting": "[1]", "value": "> 10", "unit": "µM"},
      {"measurement": "Photon counts / metastatic growth of PC-3M-luc cells", "setting": "PC-3M-luc tumor cells; 50 mg/kg p.o. daily, vs. vehicle", "value": "trend to inhibit metastatic growth; also recorded: trend of decreased photon count; also recorded: trend to inhibit PC-3M-luc photon counts"},
      {"measurement": "Efficacy compared with taxol (15 mg/kg)", "setting": "PC-3M-luc tumor cells; 50 mg/kg/d p.o.", "value": "more effective than taxol treatment"},
      {"measurement": "Mean Tumor Volume day 18", "setting": "4T1 murine breast tumor; 10 mg/kg p.o. once daily", "value": 1798, "unit": "mm^3"},
      {"measurement": "Treated/Control day 18", "setting": "4T1 murine breast tumor; 10 mg/kg p.o. once daily", "value": 0.80},
      {"measurement": "Max % Inhibition (study day), primary tumor growth", "setting": "4T1 murine breast tumor; 10 mg/kg p.o. once daily, d 11", "value": "32% and 32 (d 11) %"},
      {"measurement": "Liver # of Metastases Mean ± SD", "setting": "4T1 murine breast tumor; 10 mg/kg", "value": "22 ± 32"},
      {"measurement": "Lung # of Metastases Mean ± SD", "setting": "4T1 murine breast tumor; 10 mg/kg", "value": "36 ± 32"},
      {"measurement": "Mean Tumor Volume day 18", "setting": "4T1 murine breast tumor; 30 mg/kg p.o. once daily", "value": 1246, "unit": "mm^3"},
      {"measurement": "Treated/Control day 18", "setting": "4T1 murine breast tumor; 30 mg/kg p.o. once daily", "value": 0.55},
      {"measurement": "Max % Inhibition (study day), primary tumor growth", "setting": "4T1 murine breast tumor; 30 mg/kg p.o. once daily, d 18", "value": "45% and 45 (d 18) %"},
      {"measurement": "Liver # of Metastases Mean ± SD", "setting": "4T1 murine breast tumor; 30 mg/kg", "value": "3 ± 4"},
      {"measurement": "Lung # of Metastases Mean ± SD", "setting": "4T1 murine breast tumor; 30 mg/kg", "value": "26 ± 26"},
      {"measurement": "Mean Tumor Volume day 18", "setting": "4T1 murine breast tumor; 60 mg/kg p.o. once daily", "value": 1248, "unit": "mm^3"},
      {"measurement": "Treated/Control day 18", "setting": "4T1 murine breast tumor; 60 mg/kg p.o. once daily", "value": 0.56},
      {"measurement": "Max % Inhibition (study day), primary tumor growth", "setting": "4T1 murine breast tumor; 60 mg/kg p.o. once daily, d 11", "value": "50% and 50 (d 11) %"},
      {"measurement": "Liver # of Metastases Mean ± SD", "setting": "4T1 murine breast tumor; 60 mg/kg", "value": "1 ± 1"},
      {"measurement": "Lung # of Metastases Mean ± SD", "setting": "4T1 murine breast tumor; 60 mg/kg", "value": "24 ± 11"},
      {"measurement": "Mean Tumor Volume day 18", "setting": "4T1 murine breast tumor; 100 mg/kg p.o. once daily", "value": 624, "unit": "mm^3"},
      {"measurement": "Treated/Control day 18", "setting": "4T1 murine breast tumor; 100 mg/kg p.o. once daily", "value": 0.28},
      {"measurement": "Max % Inhibition (study day), primary tumor growth", "setting": "4T1 murine breast tumor; 100 mg/kg p.o. once daily, d 14", "value": "74% and 74 (d 14) %"},
      {"measurement": "Liver # of Metastases Mean ± SD", "setting": "4T1 murine breast tumor; 100 mg/kg", "value": "4 ± 13"},
      {"measurement": "Lung # of Metastases Mean ± SD", "setting": "4T1 murine breast tumor; 100 mg/kg", "value": "24 ± 30"},
      {"measurement": "Mean Tumor Volume day 18", "setting": "4T1 murine breast tumor; 150 mg/kg p.o. once daily", "value": 402, "unit": "mm^3"},
      {"measurement": "Treated/Control day 18", "setting": "4T1 murine breast tumor; 150 mg/kg p.o. once daily", "value": 0.18},
      {"measurement": "Max % Inhibition (study day), primary tumor growth", "setting": "4T1 murine breast tumor; 150 mg/kg p.o. once daily, d 18", "value": "82% and 82 (d 18) %"},
      {"measurement": "Liver # of Metastases Mean ± SD", "setting": "4T1 murine breast tumor; 150 mg/kg", "value": "0 ± 0"},
      {"measurement": "Lung # of Metastases Mean ± SD", "setting": "4T1 murine breast tumor; 150 mg/kg", "value": "2 ± 3"},
      {"measurement": "Reduction of number of liver tumor nodules versus controls", "setting": "4T1 murine breast tumor; 30, 60 and 100 mg/kg treatments", "value": "≥ 77", "unit": "%"},
      {"measurement": "EC50", "setting": "[2]", "value": "0.001 to 0.01", "unit": "µM"},
      {"measurement": "P-GP substrate status", "setting": "P-glycoprotein", "value": "not a P-GP substrate"},
      {"measurement": "IC50", "setting": "PI-3K", "value": "> 10", "unit": "µM"}
    ]}
  ]
}
